Results taken from US7265150B1, “Carboxylic acids and carboxylic acid isosteres of N-heterocyclic compounds for vision and memory disorders” (GPI NIL Holdings Inc., priority 1998, dated 2007).
Like-named read-outs stand apart in the source and are kept apart here.

Experiments:
[1] = Clearance (Table V, Comments); format: in vitro ADME
[2] = system: retinal ganglion cells and optic nerve axons; assay: Optic nerve transection, 14 or 28 day treatment, evaluated 90 days after transection (Example 6, Table I); format: in vivo, rat; details: 90 days after ONT
Description: All eyes and optic nerves stumps were removed.

[3] = system: retinal ganglion cells, optic nerve axons and myelin; assay: Retinal ischemia (FIG. 1, FIG. 2); format: in vivo, rat; details: 10 mg/kg s.c. 1 hour prior to ischemia and 10 mg/kg/day for next four days; 28 days after ischemia
Description: Retinal ganglion cells were retrogradely labeled in adult rats by bilateral injection of fluorogold in their lateral geniculate nuclei. Labeled ganglion cells in the normal rat retina appear as white profiles against the dark background (FIG. 1A). Complete retinal ischemia was produced by infusing normal saline solution into the retinal vitreous cavity of each eye until the intraocular pressure exceeded arterial blood pressure. 28 days after the ischemic episode extensive degeneration of retinal ganglion cell was evidenced by massive reduction in the density of fluorogold labeled cells (FIG. 1B).

aged C57BL/6N-Nia mice = assay: Morris watermaze, spatial learning and memory in aged rodents (Example 19); format: in vivo, mouse; details: 10 mg/kg daily; retention testing after 3 weeks of dosing
Description: The Morris watermaze is widely used for assessing spatial memory formation and retention in experimental animals. The test depends on the animal's ability to utilize spatial visual information in order to locate a submerged escape platform in a water tank. It is important that the tank itself be as devoid of specific visual features as possible-thus, it is always circular in shape, the sides are kept smooth and in uniform dull colors and the water is rendered opaque with nontoxic watercolor pigment or powdered milk. This is to ensure that the animal navigates only by the use of more distant visual cues, or by the use of intra-maze cues specifically provided by the experimenter. The tank is filled to a level which forces the animal to swim actively. Normal mice and rats react […] to the swimming part of the test and will climb onto, and remain on, an escape platform from which they are removed to a heated resting cage. If the platform is visible (i.e. above the surface), animals placed in the tank will quickly learn to home in on the platform and climb out onto it. […] Swim Distances (cm) were analyzed in a 7×5 ANOVA including Groups and Blocks (1-5) as factors in the analysis, treating Blocks as a repeated measure.

Clearance [1] [µL/min] | Clearance ([1]; unit printed as μl/ml) | Structure (SMILES) | Distal optic nerve myelin basic protein Density: shrinkage of cross sectional area ([2]; GPI 1046 14 days, compared to sham control) | Distal optic nerve myelin basic protein Density: myelin loss ([2]; GPI 1046 14 days, cross sectional area multiplied by myelin density) | Distal optic nerve myelin basic protein Density: less shrinkage of cross sectional area ([2]; GPI 1046 28 days) | protection of retinal ganglion cells after retinal ischemia (fluorogold labeled cells) [3] | spatial memory performance (swim distance), retention testing, aged impaired mice vs vehicle (aged C57BL/6N-Nia mice)
63.5 |  | CCC(C)(C)C(=O)C(=O)N1CCC[C@H]1C(=O)OCCCc1cccnc1 [GPI 1046] | did not protect against shrinkage of the distal stump | slightly increase the density of myelin | prevented cross sectional shrinkage | noticeable protection of a large proportion of the vulnerable ganglion cell population | significantly enhanced spatial memory performance
 | 21.9 | CN(C)C(=O)N1CCC[C@H]1C(=O)SCCCc1ccccc1 [N] |  |  |  |  | 
